In brackets after ≈: the same amount, converted by molar mass. Activity calls are given as the source filed them. The rule behind the calls is not given here.
Experiments:
[1] = test system: Aspergillus fumigatus; assay: Potency index, ratio of fluconazole MIC to test compound MIC for antifungal activity against Aspergillus fumigatus assessed as inhibition of fungal growth incubated for 24 hrs by CLSI based microbroth dilution method; assay type: functional
[2] = test system: Candida albicans; assay: Antifungal activity against Candida albicans ATCC 90023 assessed as inhibition of fungal growth incubated for 24 hrs by CLSI based microbroth dilution method; assay type: functional
[3] = test system: Candida parapsilosis; assay: Antifungal activity against Candida parapsilosis ATCC 22019 assessed as inhibition of fungal growth incubated for 24 hrs by CLSI based microbroth dilution method; assay type: functional; details: Lodderomyces parapsilosis
[4] = test system: Candida albicans; assay: Antifungal activity against Candida albicans assessed as inhibition of fungal growth incubated for 24 hrs by CLSI based microbroth dilution method; assay type: functional
[5] = test system: Candida tropicalis; assay: Antifungal activity against Candida tropicalis assessed as inhibition of fungal growth incubated for 24 hrs by CLSI based microbroth dilution method; assay type: functional
[6] = test system: Aspergillus fumigatus; assay: Antifungal activity against Aspergillus fumigatus assessed as inhibition of fungal growth incubated for 24 hrs by CLSI based microbroth dilution method; assay type: functional
[7] = test system: Candida albicans; assay: Potency index, ratio of fluconazole MIC to test compound MIC for antifungal activity against Candida albicans ATCC 90023 assessed as inhibition of fungal growth incubated for 24 hrs by CLSI based microbroth dilution method; assay type: functional
[8] = test system: Candida albicans; assay: Antifungal activity against Candida albicans measured after at 8 passages; assay type: functional, organism-based
[9] = test system: Candida albicans; assay: Antibiofilm activity against Candida albicans assessed as inhibition of biofilm formation at 0.5 to 8 microg/ml measured for 24 hrs by crystal violet staining based; assay type: functional; details: dose 0.5-8 µg/ml
[10] = test system: Cell membrane; assay: Induction of cell membrane potential loss in Candida albicans assessed as change in fluorescence intensity at 4 times MIC measured for 30 mins by DiSC3-5 dye based fluorescence method; assay type: subcellular

Row | Structure (SMILES) | Ratio [1] | MIC [2] | MIC [3] | MIC [4] | MIC [5] | MIC [6] | Ratio [7] | Activity [8] | inhibition [9] | Activity [10]
1 | C[n+]1cccc(/C=N/Nc2ccc3c4c(cccc24)C(=O)N(CCO)C3=O)c1.[I-] | 52 | 16 µM | 127 µM | 32 µM | 64 µM | 8 µM |  |  |  | 
2 | CCCCc1nc(Cl)c(/C=N/Nc2ccc3c4c(cccc24)C(=O)N(CCO)C3=O)n1Cc1cccc(Cl)c1 |  | 2 µM (≈ 1.13 µg/mL) | 57 µM (≈ 32.2 µg/mL) | 57 µM (≈ 32.2 µg/mL) | 28 µM (≈ 15.8 µg/mL) | 114 µM (≈ 64.3 µg/mL) | 16 |  |  | 
3 | OC(Cn1cncn1)(Cn1cncn1)c1ccc(F)cc1F [FLUCONAZOLE] |  | 33 µM (≈ 10.1 µg/mL) | 26 µM (≈ 7.96 µg/mL) | 13 µM (≈ 3.98 µg/mL) | 13 µM (≈ 3.98 µg/mL) | 418 µM (≈ 128 µg/mL) |  | inactive | inactive | 
4 | CCCCc1nc(Cl)c(/C=N/Nc2ccc3c4c(cccc24)C(=O)N(CCO)C3=O)n1CC(=O)OCC |  | 61 µM (≈ 32.1 µg/mL) | 244 µM (≈ 128 µg/mL) | 30 µM (≈ 15.8 µg/mL) | 2 µM (≈ 1.05 µg/mL) | 61 µM (≈ 32.1 µg/mL) |  |  |  | 
5 | CCCCc1nc(Cl)c(/C=N/Nc2ccc3c4c(cccc24)C(=O)N(CCO)C3=O)n1CC1CC1 |  | 8 µM (≈ 3.95 µg/mL) | 65 µM (≈ 32.1 µg/mL) | 65 µM (≈ 32.1 µg/mL) | 32 µM (≈ 15.8 µg/mL) | 8 µM (≈ 3.95 µg/mL) |  |  |  | 
6 | O=C1c2cccc3c(N/N=C/c4ccc(O)c([N+](=O)[O-])c4)ccc(c23)C(=O)N1CCO |  | 10 µM (≈ 4.2 µg/mL) | 5 µM (≈ 2.1 µg/mL) | 5 µM (≈ 2.1 µg/mL) | 5 µM (≈ 2.1 µg/mL) | 2 µM (≈ 0.841 µg/mL) |  |  |  | 
7 | CCCCCN1C(=O)c2cccc3c(N/N=C(\C)Cn4c([N+](=O)[O-])cnc4C)ccc(c23)C1=O |  | 1110 µM (≈ 512 µg/mL) | 554 µM (≈ 256 µg/mL) | 1110 µM (≈ 512 µg/mL) | 1110 µM (≈ 512 µg/mL) | 554 µM (≈ 256 µg/mL) |  |  |  | 
8 | O=C1c2cccc3c(N/N=C/c4cccc(O)c4)ccc(c23)C(=O)N1CCO |  | 341 µM (≈ 128 µg/mL) | 341 µM (≈ 128 µg/mL) | 341 µM (≈ 128 µg/mL) | 682 µM (≈ 256 µg/mL) | 171 µM (≈ 64.2 µg/mL) |  |  |  | 
9 | CCCCc1nc(Cl)c(/C=N/Nc2ccc3c4c(cccc24)C(=O)N(CCO)C3=O)n1Cc1ccccc1Cl |  | 4 µM (≈ 2.26 µg/mL) | 57 µM (≈ 32.2 µg/mL) | 57 µM (≈ 32.2 µg/mL) | 57 µM (≈ 32.2 µg/mL) | 227 µM (≈ 128 µg/mL) |  |  |  | 
10 | O=C1c2cccc3c(N/N=C/c4ccc[n+](Cc5ccc([N+](=O)[O-])cc5)c4)ccc(c23)C(=O)N1CCO |  | 56 µM | 14 µM | 56 µM | 111 µM | 111 µM |  |  |  | inactive
11 | C/C(Cn1c([N+](=O)[O-])cnc1C)=N\Nc1ccc2c3c(cccc13)C(=O)N(c1ccc(Cl)cc1Cl)C2=O |  | 953 µM (≈ 512 µg/mL) | 119 µM (≈ 63.9 µg/mL) | 238 µM (≈ 128 µg/mL) | 238 µM (≈ 128 µg/mL) | 238 µM (≈ 128 µg/mL) |  |  |  | 
12 | CCCCc1nc(Cl)c(/C=N/Nc2ccc3c4c(cccc24)C(=O)N(CCO)C3=O)n1CCC |  | 67 µM (≈ 32.3 µg/mL) | 266 µM (≈ 128 µg/mL) | 133 µM (≈ 64.1 µg/mL) | 67 µM (≈ 32.3 µg/mL) | 33 µM (≈ 15.9 µg/mL) |  |  |  | 
13 | CCCCc1nc(Cl)c(/C=N/Nc2ccc3c4c(cccc24)C(=O)N(CCO)C3=O)n1Cc1ccc([N+](=O)[O-])cc1 |  | 7 µM (≈ 4.03 µg/mL) | 14 µM (≈ 8.05 µg/mL) | 111 µM (≈ 63.8 µg/mL) | 28 µM (≈ 16.1 µg/mL) | 111 µM (≈ 63.8 µg/mL) |  |  |  | 
14 | CCCCc1nc(Cl)c(/C=N/Nc2ccc3c4c(cccc24)C(=O)N(CCO)C3=O)[nH]1 |  | 18 µM (≈ 7.92 µg/mL) | 291 µM (≈ 128 µg/mL) | 36 µM (≈ 15.8 µg/mL) | 73 µM (≈ 32.1 µg/mL) | 73 µM (≈ 32.1 µg/mL) |  |  |  | 
15 | CCCCc1nc(Cl)c(/C=N/Nc2ccc3c4c(cccc24)C(=O)N(CCO)C3=O)n1Cc1cccc(F)c1 |  | 7 µM (≈ 3.84 µg/mL) | 29 µM (≈ 15.9 µg/mL) | 117 µM (≈ 64.1 µg/mL) | 58 µM (≈ 31.8 µg/mL) | 58 µM (≈ 31.8 µg/mL) |  |  |  | 
16 | CN1C(=O)c2cccc3c(N/N=C/c4ccc([N+](=O)[O-])o4)ccc(c23)C1=O |  | 175 µM (≈ 63.8 µg/mL) | 350 µM (≈ 128 µg/mL) | 87 µM (≈ 31.7 µg/mL) | 87 µM (≈ 31.7 µg/mL) | 87 µM (≈ 31.7 µg/mL) |  |  |  | 
17 | C/C(Cn1c([N+](=O)[O-])cnc1C)=N\Nc1ccc2c3c(cccc13)C(=O)N(CCO)C2=O |  | 1170 µM (≈ 512 µg/mL) | 1170 µM (≈ 512 µg/mL) | 1170 µM (≈ 512 µg/mL) | 1170 µM (≈ 512 µg/mL) | 587 µM (≈ 256 µg/mL) |  |  |  | 
18 | COc1ccc(N2C(=O)c3cccc4c(N/N=C(\C)Cn5c([N+](=O)[O-])cnc5C)ccc(c34)C2=O)cc1 |  | 1030 µM (≈ 512 µg/mL) | 257 µM (≈ 128 µg/mL) | 514 µM (≈ 256 µg/mL) | 514 µM (≈ 256 µg/mL) | 1030 µM (≈ 512 µg/mL) |  |  |  | 
19 | O=C1c2cccc3c(N/N=C/c4c(Cl)cccc4Cl)ccc(c23)C(=O)N1CCO |  | 300 µM (≈ 128 µg/mL) | 599 µM (≈ 257 µg/mL) | 150 µM (≈ 64.2 µg/mL) | 150 µM (≈ 64.2 µg/mL) | 300 µM (≈ 128 µg/mL) |  |  |  | 

Source: ChEMBL document CHEMBL5506069, “A Unique Hybridization Route to Access Hydrazylnaphthalimidols as Novel Structural Scaffolds of Multitargeting Broad-Spectrum Antifungal Candidates” (J Med Chem, 2024)
